Data set [1] is described as follows: Acute toxicity, intraperitoneal route. As to conditions: mouse, in vivo, ip, in DMSO, 14 days observation, with confidence interval. The protocol: The test animals used are Swiss mice (NMRI-Han). The average weight of the male animals is 30 g, that of the females is 25 g.
The acute toxicity investigation was conducted by the intraperitoneal route.
The compounds, dissolved in DMSO, are injected under the ventral side of the peritoneum, at increasing dosages.
The reference group is administered DMSO under the same conditions (2.5 ml.kg^-1).
Following Table III gives the values of the 50% lethal dosages together with the […].

For another data set, the system named is edema of the ear in rats. Description: Cutaneous anti-inflammatory activity: inhibition of the edema of the ear in rats following topic administration. Format: in vivo. As to conditions: rat ear edema, topical. The protocol:
Cutaneous anti-inflammatory activity determined by the inhibition of the edema of the ear in rats following topic administration. This activity is determined by means of the method according to G. Tonelli and co-workers (Endocrinology, 1965, 77, 625-634). The effect of various concentrations of each compound is determined in at least seven rats. Inflammation is inhibited by a factor of 50% at the following concentrations: […]

Another data set addresses T1, 12-lipoxygenase (Oryctolagus cuniculus, UniProt G1U492).
T1 construct: metabolism of ^14 C-Arachidonate in the blood platelets of rabbits; endogenous in cells; host or cells: washed rabbit blood platelets (from platelet-rich plasma)
T1 sequence (G1U492 1-663): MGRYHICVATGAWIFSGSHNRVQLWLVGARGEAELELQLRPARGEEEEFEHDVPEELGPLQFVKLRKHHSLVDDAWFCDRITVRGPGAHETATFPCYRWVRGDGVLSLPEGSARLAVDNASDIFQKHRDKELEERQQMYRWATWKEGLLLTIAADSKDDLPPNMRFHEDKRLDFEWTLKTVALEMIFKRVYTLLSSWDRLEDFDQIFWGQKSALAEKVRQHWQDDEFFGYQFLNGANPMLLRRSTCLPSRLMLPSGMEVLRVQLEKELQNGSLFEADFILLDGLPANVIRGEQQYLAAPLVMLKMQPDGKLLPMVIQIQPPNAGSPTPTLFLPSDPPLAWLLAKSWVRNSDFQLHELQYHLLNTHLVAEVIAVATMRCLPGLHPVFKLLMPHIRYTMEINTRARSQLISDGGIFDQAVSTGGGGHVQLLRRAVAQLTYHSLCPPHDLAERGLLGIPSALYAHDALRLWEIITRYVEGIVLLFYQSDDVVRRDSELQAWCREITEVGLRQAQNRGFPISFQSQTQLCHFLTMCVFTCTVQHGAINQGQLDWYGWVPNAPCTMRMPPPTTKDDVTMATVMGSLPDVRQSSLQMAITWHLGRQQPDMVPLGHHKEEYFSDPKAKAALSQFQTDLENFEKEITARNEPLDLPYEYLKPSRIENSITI
Kind of data set: Inhibition of the metabolism of 14C-arachidonate in the blood platelets of rabbits: 12-lipoxygenase route (12-HETE). Format: cell-based. The following applies: rabbit blood platelets; 12 HETE; n.i. = no inhibition. The protocol:
(§1) 1.2. Inhibition of the metabolism of
(§2) ^14 C-Arachidonate in the blood platelets of rabbits
(§3) Preparation of a platelet-rich plasma (PRP)
(§4) A 12 ml blood sample is taken, by the intracardiac route, on ACD (anticoagulant consisting of an aqueous solution containing 0.27 g citric acid, 0.5 g disodium citrate and 0.02 g glucose per 20 ml water), at a rate of 1 volume ACD per 6 volumes blood. The blood is centrifuged at 200 g for 10 minutes and the supernatant (PRP) is collected. It is again centrifuged at 1500 g for 15 minutes. The blood-platelet sediment is washed with Buffer I (NaCl: 8 g/l, Tris: 1.21 g/l, KCl: 0.2 g/l, Gelatin: 2.5 g/l; the material is heated at 90° C. to dissolve the gelatin, after which are added glucose: 1 g/l, and N,N'-ethyleneglycol bis(β-aminoethyl ether,)tetraacetic acid or EGTA: 0.075 g/l). The suspension is centrifuged at 1500 g for 10 minutes, and the sediment is taken up into Buffer II (NaCl: 8 g/l, Tris: 1.21 g/l, KCl: 0.2 g/l, CaCl2 : 0.145 g/l, MgCl2 0.2 g/l, gelatin: 2.5 g/l; this material is heated to 90° C., after which glucose (1 g/l) is added, and the pH is adjusted to a value of 7.4 with 0.1 N HCl),
(§5) Metabolism of ^14 C-Arachidonate
(§6) The blood-platelet suspension (0.4 ml/tube) is pre-incubated at 37° C. for 15 minutes, either with 10 μl DMSO (reference), or with varying concentrations of products to be treated dissolved in 10 μl DMSO.
(§7) The incubation is effected in the presence of ^14 C-Arachidonate (1 μg, 0.2 μCi) distributed within 0.1 ml Buffer II. It is blocked after 15 minutes by means of 50 μl citric acid and 250 μl saturated NaCl.

Data set [2] has as its target T2, 5-lipoxygenase of the peritoneal leukocytes of rabbits (PMNs) (Oryctolagus cuniculus, UniProt G1SNX0).
T2 construct: metabolism of ^14 C-AA in the peritoneal PMNs of rabbits; endogenous in cells; host or cells: rabbit peritoneal polymorphonuclear leukocytes (suspension)
T2 sequence (G1SNX0 1-674): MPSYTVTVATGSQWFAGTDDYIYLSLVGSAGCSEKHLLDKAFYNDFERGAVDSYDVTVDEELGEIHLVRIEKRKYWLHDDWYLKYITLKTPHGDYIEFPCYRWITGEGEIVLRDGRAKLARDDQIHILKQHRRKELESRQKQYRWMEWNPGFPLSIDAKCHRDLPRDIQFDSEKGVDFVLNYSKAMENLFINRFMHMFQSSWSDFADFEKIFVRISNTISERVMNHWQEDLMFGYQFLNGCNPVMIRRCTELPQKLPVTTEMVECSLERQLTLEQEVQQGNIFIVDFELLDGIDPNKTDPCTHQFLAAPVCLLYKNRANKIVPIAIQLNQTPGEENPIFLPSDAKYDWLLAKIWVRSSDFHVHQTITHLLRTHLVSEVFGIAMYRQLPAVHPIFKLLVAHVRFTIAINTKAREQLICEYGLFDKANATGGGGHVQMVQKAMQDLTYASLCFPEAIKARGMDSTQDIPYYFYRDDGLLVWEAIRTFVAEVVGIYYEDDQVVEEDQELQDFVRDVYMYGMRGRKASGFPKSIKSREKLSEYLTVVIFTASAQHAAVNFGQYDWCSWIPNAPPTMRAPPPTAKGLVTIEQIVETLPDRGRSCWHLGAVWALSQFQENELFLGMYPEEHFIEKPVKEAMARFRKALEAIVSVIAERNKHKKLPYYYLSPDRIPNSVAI
Description: Inhibition of the 5-lipoxygenase of the peritoneal leukocytes of rabbits (PMNs), metabolism of 14C-arachidonate. Format: cell-based. The following applies: rabbit peritoneal PMNs; for IC50: n.i. = no inhibition. The protocol: 1.1. Inhibition of the 5-lipoxygenase of the peritoneal leukocytes of rabbits (PMNs)
(§8) Preparation of a suspension of rabbit PMNs
(§9) The peritoneal leukocytes of rabbits are obtained and prepared according to the technique described by P. Borgeat and B. Samuelson (J. Biol. Chem. 254, n° 8, p. 2643, 1979).
as §5
(§10) The incubation and extraction methods are those described by J. Y. Vanderhoek & co-workers (J. Biol. Chem. […], 21, 10064, 1980).
(§11) The percent inhibition of the 5-lipoxygenase is determined as a function of the concentration of each compound. The concentration of product that inhibits the metabolism by a factor of 50% (IC50) is inferred from those curves.

The next data set concerns 15 HETE. Kind of data set: Metabolism of 14C-arachidonate in rabbit peritoneal PMNs: 15 HETE. Format: cell-based. The following applies: 15 HETE formation, n.i. = no inhibition. The protocol:
as §8, §9, §5, §10, §11

The test system of the next data set is prostanoids. Description: Inhibition of the metabolism of 14C-arachidonate in the blood platelets of rabbits: prostanoids route (TxB2, HHT). It counts as cell-based. As to conditions: rabbit blood platelets. The protocol:
as §1, §2, §3, §4, §5, §6, §7

Data set [3] has as its system leukocytic infiltration in the aqueous humor. The following applies: in vivo; cited from earlier work.

The source of these data is US4656184A, “2-(N-substituted hydrazone), thiazoles useful as anti-inflammatories” (priority 1982, dated 1987).

SMILES strings stand for the structures. Like-named read-outs stand apart in the source and are kept apart here. A value given as a limit tells only on which side of the number the result lay.

For orientation: LD50 means the dose at which mortality reaches 50%. As usually defined, the IC50 is the concentration needed to halve the response being measured. In the case of `CC(=NNc1nccs1)c1cccs1` [Example 3b], the LD50 at 336 h in data set [1] (female Swiss mice, read-out: Parenteral LD50, female mice) was 155 ± 32 mg/kg; in data set [1] (male Swiss mice, read-out: Parenteral LD50, male mice), 105 ± 24 mg/kg. The “concentration at which inflammation is inhibited by a factor of 50%” value in the data set with edema of the ear in rats (at least seven rats) was 16 mg/mL; in the data set on edema of the ear in rats (molar value in parentheses), 57 µmol/mL. The IC50 against 12-lipoxygenase is 10 µM; in data set [2] (5 HETE formation, read-out: IC50 in the PMNs, 5 HETE), 10 µM; in data set [2] (LTB4 formation, read-out: IC50 in the PMNs, LTB4) it was 13 µM; with 15 HETE, 40 µM; in the data set with prostanoids (HHT, read-out: IC50 in the blood platelets, HHT), above 50 µM; in the data set on prostanoids (thromboxane B2, read-out: IC50 in the blood platelets, T × B2) it was 10 µM. Moreover, in data set [2] (50 μM), the “inhibition of the metabolism of the 5-lipoxygenase route (chromatographic profile, FIG. 2b)” value is “inhibition of the metabolism of the 5-lipoxygenase route”.

On to `COc1ccc2c(c1)c(CC(=O)O)c(C)n2C(=O)c1ccc(Cl)cc1` [Indomethacin], for which, in the data set with edema of the ear in rats (at least seven rats), the “concentration at which inflammation is inhibited by a factor of 50%” value is “no inhibition”. In data set [3], the “leukocytic infiltration in the aqueous humor” value is on record as “increases leukocytic infiltration in the aqueous humor”.
